{"source": "patent EP3098228A1", "about": "“POLYOXOMOLYBDATE-BISPHOSPHONATE COMPLEX CONTAINING A HETEROMETALLIC ION DIFFERENT FROM MOLYBDENUM” (CENTRE NATIONAL DE LA RECHERCHE SCIENTIFIQUE, priority 2015, dated 2016)", "key": {"[1]": {"tested_on": "MCF-7", "experiment": "Cell growth \"rescue\" experiments with geranylgeraniol (GGOH)", "format": "cell-based, Human", "description": "Addition of geranylgeraniol (GGOH) was tested on Mo4Zol2Mn.\nProtocol Cell growth \"rescue\" experiments with geranylgeraniol were carried out as described previously, and namely in Y. Zhang, et al J. Am. Chem. Soc. 2009, 131, 51.\nAn increase in the IC50 indicates a direct role for the bisphosphonate moiety in cell growth inhibition."}, "[2]": {"tested_on": "Human tumor cell lines MCF-7 (breast adenocarcinoma)", "experiment": "Cell-growth inhibition assay (MTT cell proliferation assay, 4 days)", "format": "cell-based", "details": "MCF-7, 4 days incubation", "description": "Cells were plated at a density of 5000 cells/well.\nResults are gathered in table 3 hereinafter. The results are shown on a molar basis (IC50 values, in µM) as well as on a per-bisphosphonate basis, which is more logical when comparisons are to be made with the pure bisphosphonates."}, "[3]": {"experiment": "Solubility in water (remark in the solid state NMR section)", "format": "physicochemical", "source_text": "The broadening could be due either to the low crystallinity in Mo12(AlePy)4Pt4 and/or, a dynamic disorder, since we also observe a much less efficient CP transfer in CPMAS experiments when compared with Mo12(AlePy)4."}, "[4]": {"tested_on": "MCF-7", "details": "literature values, cited from earlier work"}, "[5]": {"details": "measurement conditions not strictly identical to Table 3, read-out: IC50"}, "[6]": {"details": "per bisphosphonate, read-out: IC50 per BP"}}, "note": "Read-outs that look alike come from different tables or passages of the source.", "data": [{"molecule": "Rb(NH4)4[(Mo2O6)2(O3PC(CH2C3H4N2)(O)PO3)2Mn].14H2O [Mo4Zol2Mn]", "values": [{"measurement": "IC50", "setting": "[1]; with addition of geranylgeraniol (GGOH), read-out: IC50 +GGOH", "value": 7.6, "unit": "µM"}, {"measurement": "IC50", "setting": "[1]; without GGOH, read-out: IC50", "value": 1.3, "unit": "µM"}, {"measurement": "IC50", "setting": "[2]; molar basis, read-out: IC50", "value": "1.3 ± 0.24", "unit": "µM"}, {"measurement": "IC50", "setting": "[2]; per-bisphosphonate basis, read-out: IC50 per BP", "value": "2.6 ± 0.48", "unit": "µM"}]}, {"molecule": "Na3{Na(Mo3O8)4[O3PCC3H6NH2CH2(C5H5N)(O)PO3]4} .25H20 [Mo12(AlePy)4]", "values": [{"measurement": "solubility in water", "setting": "[3]", "value": "essentially insoluble in water"}]}, {"molecule": "O=P(O)(O)C(O)(Cn1ccnc1)P(=O)(O)O", "note": "[Zol, zoledronate]", "values": [{"measurement": "IC50", "setting": "[1]; Homo sapiens, MCF7, with addition of geranylgeraniol (GGOH), read-out: IC50 +GGOH", "value": 48, "unit": "µM"}, {"measurement": "IC50", "setting": "[1]; Homo sapiens, MCF7, without GGOH, read-out: IC50", "value": 15, "unit": "µM"}, {"measurement": "IC50", "setting": "[2]; Homo sapiens, MCF7, 96 h, molar basis, read-out: IC50", "value": "15 ± 2.6", "unit": "µM"}, {"measurement": "IC50", "setting": "[2]; Homo sapiens, MCF7, 96 h, per-bisphosphonate basis, read-out: IC50 per BP", "value": "15 ± 2.6", "unit": "µM"}, {"measurement": "IC50", "setting": "[4]; [5]", "value": "7.7 ± 2.6", "unit": "µM"}, {"measurement": "IC50", "setting": "[4]; [6]", "value": 7.7, "unit": "µM"}]}, {"molecule": "[Cl][Mn][Cl]", "note": "[MnCl2]", "values": [{"measurement": "IC50", "setting": "[2]; molar basis, listed as Mn(II)Cl2, read-out: IC50", "value": "~740", "unit": "µM"}, {"measurement": "IC50", "setting": "[2]; molar basis, read-out: IC50", "value": "740 ± 140", "unit": "µM"}]}, {"molecule": "NCCCC(O)(P(=O)(O)O)P(=O)(O)O", "note": "[Ale, alendronate]", "values": [{"measurement": "IC50", "setting": "[4]; [5]", "value": "130 ± 2.2", "unit": "µM"}, {"measurement": "IC50", "setting": "[4]; [6]", "value": 130, "unit": "µM"}]}]}
